What was measured:
COL15A1 = experiment: Collagen gene expression in adult human dermal fibroblasts, PCR array; assay type: cell-based; conditions: HDF, 24 hours
Procedure: (§1) Using adult human dermal fibroblasts (Cell Applications, San Diego, Calif.) (“HDF”), the effectiveness of three chlorophyllin materials—Isochlorin E4 Disodium (“E4”); Sodium Copper Chlorophyllin C3999 (“C3999”); and Chlorophyllin Sodium Copper Salt (“CSCS”)—are assessed for the ability to positively effect the differential expression of at least one of the following three collagen genes—COL15A1; COL1A1; and COL5A1. After cell viability tests, the effect of 2 μg/ml E4, 10 μg/ml CSCS, and 10 μg/ml C3999 on adult human dermal fibroblasts (100,000 cells/well) on gene expression were evaluated using PCR arrays.
(§2) HDF cells were incubated for 24 hours in a 12-well plate at a concentration of 100,000 cells/well in Dulbecco's Modified Eagle Medium (DMEM) with 5% Fetal Bovine Serum (FBS). The three test materials were added to the wells, incubated for 24 hours. […] RNA was extracted and purified with NucleoSpin RNA II kit from Machery-Nagel (Bethlehem, Pa.). Purified total RNA was analyzed at 230 nm, 260 nm and 280 nm with Agilent HP-8452A diode array spectrophotometer. The concentration of RNA was equalized across the samples and the expression of genes of interest was measured by real-time quantitative PCR with BioRad iCycler iQ Detection System using Human Extracellular Matrix & Adhesion Molecules PCR array PAHS-13ZA from Qiagen (formerly SA Biosciences, Frederick, Md.). Reactions were performed with 1st strand synthesis kit, SYBR Green master mix and PCR setup parameters from Qiagen. Results were normalized to housekeeping genes with the RT2 Profiler PCR Array Data Analysis version 3.5 software
(§3) Genes were considered differentially expressed if the level of expression was detected in less than 30 cycles, and modulation was 1.5 fold or higher.

COL1A1 = experiment: as above; assay type: cell-based; conditions: HDF, 24 hours
Procedure: as §1, §2, §3

COL5A1 = experiment: as above; assay type: cell-based; conditions: HDF, 24 hours
Procedure: as §1, §2, §3

HDF = experiment: Long term HDF viability, MTT assay; assay type: cell-based, human; conditions: long-term incubation, 1 μg/mL
Procedure: The effect of long-term incubation of HDF with E4 is assessed by MTT, a colorimetric assay for assessing cell metabolic activity.

[1] = test system: non-soluble type I collagen; experiment: Non-soluble type I collagen production by HDF, direct ELISA; assay type: cell-based, human; conditions: for % CTRL (COL-I): 4 days, vs water; for % CTRL (Cell # Standardized): non-soluble collagen I standardized to cell numbers; for Cell # Standardized: repeat testing, type I collagen deposition, H2O = 100
Procedure: Adult human dermal fibroblasts (Cell Applications, San Diego, Calif.) were plated in DMEM without phenyl red supplemented with 5% FBS and 1% penicillin/streptomycin (PS) at a concentration of 8,000 cells/well. Test materials, which were stored at 4° C. until dissolved at 20 mg/ml in ddH2O, were added the next day on attached exponentially-growing cells.
Cells were then fixed with 2.5% trichloroacetic acid (TCA) at 4° C., dried overnight, and tested for non-soluble type I collagen, using direct ELISA.
(§4) Cells proliferation was quantified by staining cytoskeletons with sulforhodamine B according to the colorimetric method of Voigt, “Sulforhodamine B assay and chemosensitivity,” Methods Mol. Med. Vol. 110, pp. 39-48 (2005). Statistical significance was assessed with two-tailed paired Student test. Deviations of >15% as compared to the negative water control with p values below 0.05 were considered statistically significant.

[2] = test system: adult human dermal fibroblasts; experiment: Cell proliferation, sulforhodamine B staining; assay type: cell-based; conditions: 4 days, vs water
Procedure: Adult human dermal fibroblasts (Cell Applications, San Diego, Calif.) were plated in DMEM without phenyl red supplemented with 5% FBS and 1% penicillin/streptomycin (PS) at a concentration of 8,000 cells/well. Test materials, which were stored at 4° C. until dissolved at 20 mg/ml in ddH2O, were added the next day on attached exponentially-growing cells. Negative and positive controls were, respectively, type I sterile water and L-Ascorbic acid 2-phosphate sesquimagnesium salt (“MAP”) (Sigma-Aldrich).
as §4

[3] = Viscosity of HA solution on storage at 25, 40 and 50° C. (cone-plate viscometer); assay type: physicochemical
Procedure: Viscosity measurements are made of vials of sterile, injectable grade, high molecular weight 1% sodium hyaluronate solution (Hycoat® Sterile Wound Management Solution; Hyaluronate Sodium, Solution 20 mg/2 mL; avg. molecular weight 1.0-1.3 million Daltons; supplied by Hymed Group, Bethlehem, Pa.) containing Chlorophyllin Copper Complex Sodium at varying concentrations as summarized in the table below. Preferably, dissolved and atmospheric oxygen is purged from the HA solution by displacing the headspace in the vial with Nitrogen or Argon.
Sodium copper chlorophyllin complex (disodium copper isochlorin e4 minimum content of 25% based on dry weight of complex; supplied by Frontier Scientific, Logan, Utah) is added to the 1% HA test solutions (i.e., 2 mL Hycoat® described above) as follows: 1 gram of CHLcu is added to 99 grams of distilled water, heated to 50° C., mixed for 30 minutes with a magnetic stirrer, and then cooled to room temperature. The specified concentration of CHLCu solution is drawn into a syringe through a 0.45u syringe filter and added to the sterile vial of 1% HA solution under a laminar flow hood. For example, in order to prepare a 1% HA solution containing 100 ppm of CHLcu in the final HA solution 20.5 microliters (0.0205 mL) of the 1% CHLCu solution is injected into the vial of 2 mL of sterile HA solution.
Each of the 2 mL test samples (with and without CHLcu) are stored at 25° C., 40° C., and 50° C. for up to eight weeks. Viscosity measurements are taken at baseline and at 1, 2, 4, 6 and 8 weeks after storage at the three temperatures.
0.5 mL of the test sample is then withdrawn from each vial, causing a temporary shear in the sample viscosity.
All samples (1% HA+CHLCu) are equilibrated prior to viscosity measurement. […]
Each withdrawn sample is allowed to further equilibrate for five additional minutes before taking viscosity measurements. Viscosity is preferably measured at 2 rpm with a cone-plate viscometer (e.g., Brookfield LVD-II Pro Cone/Plate viscometer; CPE-51 spindle from Brookfield Engineering Laboratories, Inc. Middleboro, Mass.).

[4] = test system: Vitrase injectable sterile hyaluronidase; experiment: Anti-hyaluronidase activity: viscosity of 1% HA before and after addition of Vitrase; assay type: biochemical, Ovine
Procedure: In order to assess the anti-hyaluronidase activity of the CHLcu stabilizing agent, 40 units (0.2 mL) of Vitrase® injectable sterile hyaluronidase solution (Ovine, 200 USP Units/mL) is added to each of four 1% HA samples that have been stored at 25° C. for six weeks with (a) no CHLCu; (b) 50 ppm CHLCu; (c) 100 ppm CHLCu; and (d) 250 ppm CHLCu). Anti-hyaluronidase activity is measured by comparing the viscosity of the test samples before and after addition of Vitrase®.
A product containing 1% HA (Hycoat® Sterile Wound Management Solution; Hyaluronate Sodium, Solution 20 mg/2 mL; average molecular weight 1.0-1.3 million Daltons) and 100 mcg/mL CHLCu was combined with 40 units (0.2 mL) of Vitrase® injectable sterile hyaluronidase solution (Ovine, 200 USP Units/mL) and stored at 25° C. for 30 minutes. The viscosity of the combined solution of sodium HA, CHLCu, and Vitrase® composition was seen to drop from 450.6 cps to 161.8 cps, or 35.9% of initial viscosity.
By way of comparison, the viscosity of the same 1% HA solution without CHLCu was measured, and then exposed to 40 units of the same Vitrase. After 30 minutes of Vitrase® contact, the 1% HA solution underwent a viscosity change from 516.2 cps to 43.69 cps or only 8.5% of the initial HA viscosity.

[5] = 1% HA (Hycoat) + 100 mcg/mL CHLCu, 40 units Vitrase, 25° C., 30 minutes

Substance | % CTRL (COL-I) ([1]; 5 μg/mL) [% CTRL] | % CTRL (COL-I) ([1]; 10 μg/mL) [% CTRL] | % CTRL (Cell # Standardized) ([1]; 5 μg/mL) [% CTRL] | % CTRL (Cell # Standardized) ([1]; 10 μg/mL) [% CTRL] | Cell # Standardized ([1]; 0.25 ug/ml) | Cell # Standardized ([1]; 1 μg/ml) | Cell # Standardized ([1]; 2 μg/ml) | Cell # Standardized ([1]; 5 μg/ml) | % CTRL (Cell #) ([2]; 5 μg/mL) [% CTRL] | % CTRL (Cell #) ([2]; 10 μg/mL) [% CTRL] | COL15A1 expression (modulation) (COL15A1; 10 μg/ml) [fold] | COL1A1 expression (modulation) (COL1A1; 10 μg/ml) [fold] | COL5A1 expression (modulation) (COL5A1; 10 μg/ml) [fold] | % CTRL (COL-I) ([1]; 20 μg/mL) [% CTRL] | % CTRL (Cell # Standardized) ([1]; 20 μg/mL) [% CTRL] | % CTRL (Cell #) ([2]; 20 μg/mL) [% CTRL] | further results
Isochlorin E4 Disodium | 94 | 90 | 115 | 111 | 88 | 89 | 113 | 101 | 81 | 80 |  |  |  |  |  |  | COL15A1 expression (modulation) (COL15A1; 2 μg/ml): 1.2 fold; COL1A1 expression (modulation) (COL1A1; 2 μg/ml): 1.2 fold; COL5A1 expression (modulation) (COL5A1; 2 μg/ml): 1.5 fold; HDF cell metabolic activity (MTT) (HDF): unaffected; % CTRL (COL-I) ([1]; 2 μg/mL): 120 % CTRL; % CTRL (Cell # Standardized) ([1]; 2 μg/mL): 133 % CTRL; % CTRL (Cell #) ([2]; 2 μg/mL): 89 % CTRL
Sodium Copper Chlorophyllin C3999 | 97 | 110 | 101 | 118 |  |  |  |  | 95 | 92 | 1.5 | 1.2 | 1.3 | 121 | 145 | 83 | 
Chlorophyllin Copper Complex Sodium [CHLcu] |  |  |  |  |  |  |  |  |  |  |  |  |  |  |  |  | viscosity change compared with samples not containing CHLCu ([3]; 1% HA, 25, 40, 50° C., up to eight weeks): less of a viscosity change; viscosity deviation from baseline after 8 weeks of storage ([3]; HA product stored with CHLcu about 50 to about 250 ppm, 40° C.): ≤ 5%; viscosity increase ([3]; HA product stored with CHLcu about 50 to about 250 ppm, 40° C., about 8 weeks): up to 25%; viscosity before Vitrase ([4]; 1% HA (Hycoat) + 100 mcg/mL CHLCu): 450.6 cps; % of initial viscosity after Vitrase [4, 5]: 35.9%; viscosity after Vitrase [4, 5]: 161.8 cps; loss of viscosity when challenged with hyaluronidase ([4]; product containing HA (or modified HA) and CHLCu): reduced loss of viscosity
L-Ascorbic acid 2-phosphate sesquimagnesium salt [MAP, reference compound] |  |  |  |  |  |  |  |  |  |  |  |  |  |  |  |  | % CTRL (Cell #) ([2]; 50 μg/mL): 111 % CTRL; % CTRL (Cell #) ([2]; 100 μg/mL): 100 % CTRL
Chlorophyllin Sodium Copper Salt [CSCS] | 95 | 85 | 99 | 96 | 97 | 96 | 114 | 110 | 95 | 87 | 1.2 | 1.5 | 1.7 | 84 | 94 | 88 | 
